Like-named read-outs stand apart in the source and are kept apart here.
Experiment: Blood and cerebrospinal fluid pharmacokinetics after acute intraperitoneal administration in freely moving rats
Format: in vivo
Conditions: for serum and CSF concentrations versus dose: intraperitoneal, 20, 40 and 80 mg/kg; for Elimination half-life (t1/2)-CSF (Mean) / penetration of the blood brain barrier / Elimination half-life (t1/2)-Serum (Mean): intraperitoneal; for penetration of the blood brain barrier: appearance in serum and CSF; for Tmax: rat, ip, acute intraperitoneal, 20, 40 and 80 mg/kg
Description: Blood and Cerebrospinal Fluid Pharmacokinetics in Comparison of the Levetiracetam and Formula II (2-1) in Rats
The temporal pharmacokinetic interrelationship of levetiracetam and Formula II (2-1) in blood and cerebrospinal fluid (CSF) was studied after acute intraperitoneal administration of levetiracetam and Formula II (2-1), (20, 40 and 80 mg/kg), using an animal model that permits concurrent blood and CSF sampling in freely moving rats.

[1] = cerebrospinal fluid, read-out: Tmax mean range, CSF
[2] = serum, read-out: time to maximum concentration (Tmax) mean range, serum

Compound	serum and CSF concentrations versus dose	Elimination half-life (t1/2)-CSF (Mean)	penetration of the blood brain barrier	Elimination half-life (t1/2)-Serum (Mean) (serum)	Tmax [1]	Tmax [2]
CC[C@@H](C(=O)NC(=O)OC(C)OC(=O)CCCC[C@@H]1CCSS1)N1CCCC1=O (stereo partly drawn) [Formula II (2-1)]	rose essentially linearly and dose-dependently	4.8 to 5.6 h	ready penetration of the blood brain barrier	2.3 to 3.4 h	2.14 to 2.83 h	0.47 to 0.89 h
CC[C@@H](C(N)=O)N1CCCC1=O [levetiracetam]	rose essentially linearly and dose-dependently	4.4 to 4.9 h	ready penetration of the blood brain barrier	1.8 to 2.8 h	1.33 to 1.92 h	0.25 to 0.5 h
